Test results taken from article PMC9182007, “Statistical Methods in the Study of Protein Binding and Its Relationship to Drug Bioavailability in Breast Milk” (Molecules, 2022).
Like-named read-outs stand apart in the source and are kept apart here.

How the values were obtained:
[1] = NP TLC on non-impregnated control plates; assay type: physicochemical; conditions: for CNP (Rf, control NP plate): Table S3, non-impregnated NP plate, acetonitrile/acetate buffer pH 7.4/methanol 60:20:20; for CNP (Rf value from the non-impregnated NP plate, control): Table S8, external group
[2] = HPLC on immobilized artificial membrane column (HPLCIAM); assay type: physicochemical; conditions: for log k IAM: Table S5, IAM column, pH 7.4; for k IAM: Table S5, retention factor, IAM column, phosphate buffer pH 7.4/acetonitrile 80:20; for log kIAM / kIAM: Table S9, external group
[3] = target: human serum albumin (HSA) (Homo sapiens, UniProt P02768); conditions: pH 7.4
[4] = RP TLC on non-impregnated control plates; assay type: physicochemical; conditions: Table S4, non-impregnated RP plate; acetonitrile/acetate buffer pH 7.4/methanol 60:20:20
plasma protein = conditions: ref DrugBank [7], cited from earlier work
[5] = target: T1, bovine serum albumin (BSA) (Bos taurus, UniProt P02769); assay: NP TLC on plates impregnated with bovine serum albumin; assay type: binding
T1 construct: purchased Sigma Aldrich

[6] = Table S1, plasma protein binding given as fraction
[7] = Table S6, external group (n = 38), given as fraction

T1 sequence (P02769 25-607): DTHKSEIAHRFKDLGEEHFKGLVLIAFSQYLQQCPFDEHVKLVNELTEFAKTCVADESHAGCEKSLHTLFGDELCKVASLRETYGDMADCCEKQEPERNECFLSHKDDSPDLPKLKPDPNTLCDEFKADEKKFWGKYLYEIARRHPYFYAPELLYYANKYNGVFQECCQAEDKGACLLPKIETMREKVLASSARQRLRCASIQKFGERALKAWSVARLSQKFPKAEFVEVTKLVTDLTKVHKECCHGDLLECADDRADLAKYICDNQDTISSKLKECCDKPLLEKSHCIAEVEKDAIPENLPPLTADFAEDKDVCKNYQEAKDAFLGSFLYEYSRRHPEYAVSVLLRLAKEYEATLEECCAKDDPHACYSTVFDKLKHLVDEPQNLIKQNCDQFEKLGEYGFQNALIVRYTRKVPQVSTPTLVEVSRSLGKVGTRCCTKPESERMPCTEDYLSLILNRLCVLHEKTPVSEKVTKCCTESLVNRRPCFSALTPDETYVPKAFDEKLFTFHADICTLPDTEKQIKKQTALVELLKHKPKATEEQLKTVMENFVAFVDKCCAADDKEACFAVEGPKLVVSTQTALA
Sequence of human serum albumin (HSA) (P02768 25-609): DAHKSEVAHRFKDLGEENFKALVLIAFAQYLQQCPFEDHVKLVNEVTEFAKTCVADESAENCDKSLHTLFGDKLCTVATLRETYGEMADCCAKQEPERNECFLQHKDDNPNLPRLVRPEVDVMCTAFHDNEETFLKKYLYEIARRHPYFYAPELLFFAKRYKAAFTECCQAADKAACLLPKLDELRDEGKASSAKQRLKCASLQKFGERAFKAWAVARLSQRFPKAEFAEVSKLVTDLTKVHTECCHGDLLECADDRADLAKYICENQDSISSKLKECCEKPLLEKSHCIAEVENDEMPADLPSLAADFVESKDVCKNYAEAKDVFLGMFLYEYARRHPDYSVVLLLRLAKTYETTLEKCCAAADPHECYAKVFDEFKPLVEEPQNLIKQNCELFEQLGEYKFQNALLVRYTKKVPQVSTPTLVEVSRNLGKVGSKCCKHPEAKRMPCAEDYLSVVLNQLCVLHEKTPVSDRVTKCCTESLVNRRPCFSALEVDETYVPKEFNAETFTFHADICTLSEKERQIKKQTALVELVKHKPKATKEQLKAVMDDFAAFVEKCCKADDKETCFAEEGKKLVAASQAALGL

Row | Compound | CNP (Rf, control NP plate) [1] | log k IAM [2] | k IAM [2] | CRP (Rf, control RP plate) [4] | other results
1 | O=C(O)COC(=O)Cc1ccccc1Nc1c(Cl)cccc1Cl [aceclofenac] | 0.89 | 0.42 | 2.63 |  | k HSA [3]: 55.89
2 | CC(=O)CC(c1ccc([N+](=O)[O-])cc1)c1c(O)c2ccccc2oc1=O (stereo not drawn) [acenocumarol] |  | -0.27 | 0.53 |  | 
3 | Nc1nc2c(ncn2COCCO)c(=O)[nH]1 [aciclovir] |  | -1.04 | 0.09 | 0.99 | PB (plasma protein; [6]): 0.21
4 | Cc1nnc2n1-c1ccc(Cl)cc1C(c1ccccc1)=NC2 [alprazolam] |  | 0.50 | 3.14 |  | PB (plasma protein; [6]): 0.8
5 | CCCCc1oc2ccccc2c1C(=O)c1cc(I)c(OCCN(CC)CC)c(I)c1 [amiodarone] |  |  |  | 0.33 | 
6 | CCOC(=O)C1=C(COCCN)NC(C)=C(C(=O)OC)C1c1ccccc1Cl (stereo not drawn) [amlodipine] |  | 2.00 | 98.90 | 0.61 | 
7 | CC(C)c1c(C(=O)Nc2ccccc2)c(-c2ccccc2)c(-c2ccc(F)cc2)n1CC[C@@H](O)C[C@@H](O)CC(=O)O [atorvastatin] |  |  |  | 0.80 | 
8 | Cn1c(=O)c2c(ncn2C)n(C)c1=O [caffeine] | 0.82 | -0.75 | 0.18 |  | 
9 | C[C@H](CS)C(=O)N1CCC[C@H]1C(=O)O [captopril] | 0.77 | -2.19 | 0.01 |  | 
10 | CCN(CC)CCCC(C)Nc1ccnc2cc(Cl)ccc12 (stereo not drawn) [chloroquine] |  |  |  |  | log kIAM [2]: 0.49; PB (plasma protein; [7]): 0.55
11 | O=C(O)c1cn(C2CC2)c2cc(N3CCNCC3)c(F)cc2c1=O [ciprofloxacin] | 0.11 |  |  | 0.38 | 
12 | CN(C)CCCC1(c2ccc(F)cc2)OCc2cc(C#N)ccc21 (stereo not drawn) [citalopram] |  |  |  |  | kIAM [2]: 3.14; log kIAM [2]: 0.50; PB (plasma protein; [7]): 0.80
13 | CN(C)CCCN1c2ccccc2CCc2ccc(Cl)cc21 [clomipramine] |  |  |  |  | kIAM [2]: 3.05; log kIAM [2]: 0.48
14 | COc1cc2c(c(OC)c1OC)-c1ccc(OC)c(=O)cc1[C@@H](NC(C)=O)CC2 [colchicine] |  |  |  |  | PB (plasma protein; [7]): 0.39
15 | Clc1ccc2c(c1)CCc1cccnc1C2=C1CCNCC1 [desloratidine] |  | 1.70 | 50.45 |  | 
16 | C[C@H]1O[C@@H](O[C@H]2[C@@H](O)C[C@H](O[C@H]3[C@@H](O)C[C@H](O[C@H]4CC[C@@]5(C)[C@H](CC[C@@H]6[C@@H]5C[C@@H](O)[C@]5(C)[C@@H](C7=CC(=O)OC7)CC[C@]65O)C4)O[C@@H]3C)O[C@@H]2C)C[C@H](O)[C@@H]1O [digoxin] |  | 0.57 | 3.69 |  | 
17 | COc1cc2nc(N3CCN(C(=O)C4COc5ccccc5O4)CC3)nc(N)c2cc1OC (stereo not drawn) [doxazosin] |  | -0.66 | 0.22 | 0.75 | 
18 | CN(C)CCC[C@@]1(c2ccc(F)cc2)OCc2cc(C#N)ccc21 [escitalopram] | 0.42 | 1.51 | 32.08 | 0.55 | PB (plasma protein; [6]): 0.56
19 | CC(C)(C(=O)O)c1ccc(C(O)CCCN2CCC(C(O)(c3ccccc3)c3ccccc3)CC2)cc1 (stereo not drawn) [fexofenadine] | 0.61 |  |  | 0.85 | 
20 | CNCCC(Oc1ccc(C(F)(F)F)cc1)c1ccccc1 (stereo not drawn) [fluoxetine] | 0.68 | 1.82 | 66.64 | 0.54 | PB (plasma protein; [6]): 0.945
21 | COCCCC/C(=N\OCCN)c1ccc(C(F)(F)F)cc1 [fluvoxamine] |  |  |  |  | CNP (Rf value from the non-impregnated NP plate, control) [1]: 0.34
22 | NS(=O)(=O)c1cc2c(cc1Cl)NCNS2(=O)=O [hydrochlorotiazide] |  |  |  |  | kIAM [2]: 2.01; log kIAM [2]: 0.30
23 | CC(C)Cc1ccc(C(C)C(=O)O)cc1 (stereo not drawn) [ibuprofen] |  | -0.07 | 0.86 |  | 

Row | Compound | CNP (Rf, control NP plate) [1] | log k IAM [2] | k IAM [2] | CRP (Rf, control RP plate) [4] | other results
24 | CC(C(=O)O)c1cccc(C(=O)c2ccccc2)c1 (stereo not drawn) [ketoprofen] |  | -0.71 | 0.20 |  | 
25 | O=C(O)COCCN1CCN([C@H](c2ccccc2)c2ccc(Cl)cc2)CC1 [levocetrizine] |  | 0.58 | 3.82 |  | 
26 | C[C@H]1COc2c(N3CCN(C)CC3)c(F)cc3c(=O)c(C(=O)O)cn1c23 [levofloxacin] | 0.17 | -0.04 | 0.90 | 0.27 | PB (plasma protein; [6]): 0.31
27 | Cc1cnc(NC(=O)C2=C(O)c3ccccc3S(=O)(=O)N2C)s1 [meloxicam] |  | -0.31 | 0.49 |  | 
28 | Nc1cc(N2CCCCC2)nc(N)[n+]1[O-] [minoxidil] |  |  |  |  | CNP (Rf value from the non-impregnated NP plate, control) [1]: 0.43; kIAM [2]: 1.96; log kIAM [2]: 0.29; PB (plasma protein; [7]): 0.00
29 | CC(C)(O)c1ccccc1CC[C@@H](SCC1(CC(=O)O)CC1)c1cccc(/C=C/c2ccc3ccc(Cl)cc3n2)c1 [montelukast] | 0.95 | 2.00 | 99.10 | 0.70 | 
30 | COc1ccc2cc([C@H](C)C(=O)O)ccc2c1 [naproxen] | 0.92 |  |  | 0.88 | 
31 | CC1COc2c(N3CCN(C)CC3)c(F)cc3c(=O)c(C(=O)O)cn1c23 (stereo not drawn) [ofloxacin] |  |  |  |  | CNP (Rf value from the non-impregnated NP plate, control) [1]: 0.24; kIAM [2]: 3.07; log kIAM [2]: 0.49; PB (plasma protein; [7]): 0.32
32 | O=C1Nc2ccc(Cl)cc2C(c2ccccc2)=NC1O (stereo not drawn) [oxazepam] |  | 0.68 | 4.78 |  | 
33 | CCN(CC)CC#CCOC(=O)C(O)(c1ccccc1)C1CCCCC1 (stereo not drawn) [oxybutinin] | 0.68 | 1.70 | 49.68 | 0.29 | 
34 | CCCNCC(O)COc1ccccc1C(=O)CCc1ccccc1 (stereo not drawn) [propafenone] | 0.57 |  |  | 0.56 | 
35 | CC(C)NCC(O)COc1cccc2ccccc12 (stereo not drawn) [propranolol] | 0.54 | 1.45 | 28.09 |  | NP (Rf, BSA-impregnated NP plate) ([5]; Table S3, NP plate impregnated with 2 mg/mL BSA, pH 7.4 mobile phase): 0.50
36 | CCCc1cc(=O)[nH]c(=S)[nH]1 [propylthiouracil] |  |  |  |  | kIAM [2]: 1.51; log kIAM [2]: 0.18; PB (plasma protein; [7]): 0.82
37 | C=C[C@H]1C[N@@]2CC[C@H]1C[C@H]2[C@H](O)c1ccnc2ccc(OC)cc12 [quinine] |  |  |  |  | kIAM [2]: 3.06; log kIAM [2]: 0.49
38 | CCC(C)(C)C(=O)O[C@H]1C[C@@H](C)C=C2C=C[C@H](C)[C@H](CC[C@@H]3C[C@@H](O)CC(=O)O3)[C@H]21 [simvastatin] | 0.19 |  |  | 0.66 | 
39 | CCN1CCCC1CNC(=O)c1cc(S(N)(=O)=O)ccc1OC (stereo not drawn) [sulpiride] | 0.27 | 0.22 | 1.66 | 0.85 | PB (plasma protein; [6]): 0.4
40 | CN1C(=O)C(O)N=C(c2ccccc2)c2cc(Cl)ccc21 (stereo not drawn) [temazepam] |  | 0.83 | 6.74 |  | 
41 | COc1cccc(C2(O)CCCCC2CN(C)C)c1 (stereo not drawn) [tramadol] |  |  |  |  | PB (plasma protein; [7]): 0.20
42 | COc1cc(Cc2cnc(N)nc2N)cc(OC)c1OC [trimethoprim] |  |  |  |  | NP (Rf value from the NP plate impregnated with 2 mg/mL BSA solution) ([5]; Table S8, external group): 0.59; CNP (Rf value from the non-impregnated NP plate, control) [1]: 0.57; PB (plasma protein; [7]): 0.44
43 | CCCCC(=O)N(Cc1ccc(-c2ccccc2-c2nnn[nH]2)cc1)[C@H](C(=O)O)C(C)C [valsartan] | 0.89 | -1.10 | 0.08 | 0.97 | PB (plasma protein; [6]): 0.955
44 | CC(=O)CC(c1ccccc1)c1c(O)c2ccccc2oc1=O (stereo not drawn) [warfarin] |  |  |  |  | kIAM [2]: 2.76; log kIAM [2]: 0.44
45 | gentamycin |  |  |  |  | CNP (Rf value from the non-impregnated NP plate, control) [1]: 0.96; kIAM [2]: 4.25; log kIAM [2]: 0.63
